Laboratory results: PubChem BioAssay AID1963868 (Molecular Pharmacology Branch, DTP, NCI, 2024)

Tested on: KRAS PDC tumor spheroids (HUVEC+MSC), viability
Assay: Anticancer human tumor 254851-301-R-J1-PDC patient-derived colon carcinoma cell line growth inhibition [KRAS2]
Conditions: for IC50: curve of first compound; for viability, T/C: stronger effect = lower value
From the text: Multicellular complex tumor spheroid response to RAS pathway inhibitors in combination with a targeted agents in patient-derived cell lines with oncogenic KRAS variants from multiple cancer types
A high-throughput screen of multi-cell type tumor spheroids was designed to identify active combinations of targeted small molecules and KRAS pathway inhibitors. Complex spheroids include a stromal component modeled by human endothelial cells (HUVEC) and fibroblasts modeled by human mesenchymal stem cells (MSCs). The concentration ranges selected for each drug and investigational agent were based upon clinically achievable concentrations if the clinical Cmax of the agent was known.
Compounds. The drugs and investigational agents: BI-3406 (NSC825286), BAY-293 (NSC824723), batoprotafib (TNO155; NSC825523), sotorasib (AMG 510; NSC818433), MRTX1257 (NSC819558), elimusertib (BAY 1895344; NSC800525), molibresib (GSK525762; NSC774829), temuterkib (LY3214996; NSC803410), venetoclax (NSC766270), alisertib (NSC759677), olaparib (NSC753686), talazoparib (NSC767125), erdafitinib (NSC781556), ipatasertib (NSC767898), cabozantinib (NSC761068), nintedanib (NSC756659), abemaciclib (NSC768073), docetaxel (NSC628503), trametinib (NSC758246), and sapanisertib (NSC764658) were obtained from the National Cancer Institute (NCI) Developmental Therapeutics Program Chemical Repository. The FDA-approved anticancer drug set is available from the Developmental Therapeutics Program. […] The stock solutions were prepared in dimethyl sulfoxide (DMSO, Sigma-Aldrich, St. Louis, MO, cat. D2650) at 800-fold the tested concentration and stored at -70 degrees C prior to their use. All drugs and investigational agents were tested over a range starting from a high concentration at or near the clinical Cmax and decreasing in half-log increments. If the clinical Cmax for an agent had not been determined, the highest concentration tested was 10 microM.
Cell Culture. All cells were maintained in an incubator at 37 degrees C and 5% CO2 with 95% humidity. The PDC lines were cultured according to standard operating procedures established by the NCI PDMR (https://pdmr.cancer.gov/sops/default.htm). Briefly, all PDCs were thawed and cultured in Matrigel-coated flasks prepared with a working solution of 1X Ham's F-12 nutrient mix, without supplementation (Invitrogen, Waltham, MA, cat. 11765054), 100 U/mL penicillin-streptomycin (Invitrogen, cat. 15140122), and 2.5% Matrigel (Corning Inc., Corning, NY, cat. 354248) for the first three passages. All PDCs were cultured in complete DMEM/F-12 media containing advanced DMEM/F-12 (Invitrogen, cat. 12634028), 4.9% defined fetal bovine serum, heat inactivated (HyClone Laboratories Inc., Logan, UT, cat. SH30070.03HI), 389 ng/mL hydrocortisone (Sigma-Aldrich, cat. H4001), 9.7 ng/mL human EGF recombinant protein (Invitrogen, cat. PHG0313), 23.4 microg/mL adenine (Sigma-Aldrich, cat. A2786), 97.3 U/mL penicillin-streptomycin (Invitrogen, cat. 15140122), 1.9 mM L-glutamine (Invitrogen, cat. 25030081), and 9.7 microM Y-27632 dihydrochloride (Tocris Bioscience, Bristol, United Kingdom, cat. 1254). The PDCs were cultured in complete DMEM/F12 media without 9.7 microM Y-27632 dihydrochloride for at least two passages prior to the screen. The established cell line HOP-62 was cultured in RPMI 1640 medium, HEPES (Invitrogen, cat. 22400105) with 10% defined fetal bovine serum (HyClone Laboratories Inc., cat. SH30070.03) and 2 mM L-glutamine (Invitrogen, cat. 25030081). The pooled donor HUVEC were cultured in endothelial cell growth medium 2 (PromoCell, Heidelberg, Germany, cat. C-22011) and the hMSC were cultured in mesenchymal stem cell growth medium 2 (PromoCell, cat. C-28009). For all experiments, HUVEC and hMSC were used at passages </=5, while the malignant cell lines were used at passages </=15. […]

[1] = second compound 0.1 µM, first compound 0.01 µM
[2] = second compound 0.1 µM, first compound 0.0316 µM
[3] = second compound 0.1 µM, first compound 0.1 µM
[4] = second compound 0.1 µM, first compound 0.316 µM
[5] = second compound 0.1 µM, first compound 1 µM
[6] = second compound 0.1 µM, first compound 3.16 µM
[7] = second compound 0.316 µM, first compound 0.01 µM
[8] = second compound 0.316 µM, first compound 0.0316 µM
[9] = second compound 0.316 µM, first compound 0.1 µM
[10] = second compound 0.316 µM, first compound 0.316 µM
[11] = second compound 0.316 µM, first compound 1 µM
[12] = second compound 0.316 µM, first compound 3.16 µM
[13] = second compound 1 µM, first compound 0.01 µM
[14] = second compound 1 µM, first compound 0.0316 µM
[15] = second compound 1 µM, first compound 0.1 µM
[16] = second compound 1 µM, first compound 0.316 µM
[17] = second compound 1 µM, first compound 1 µM
[18] = second compound 1 µM, first compound 3.16 µM
[19] = second compound 3.16 µM, first compound 0.01 µM
[20] = second compound 3.16 µM, first compound 0.0316 µM
[21] = second compound 3.16 µM, first compound 0.1 µM
[22] = second compound 3.16 µM, first compound 0.316 µM
[23] = second compound 3.16 µM, first compound 1 µM
[24] = second compound 3.16 µM, first compound 3.16 µM
[25] = second compound 10 µM, first compound 0.01 µM
[26] = second compound 10 µM, first compound 0.0316 µM
[27] = second compound 10 µM, first compound 0.1 µM
[28] = second compound 10 µM, first compound 0.316 µM
[29] = second compound 10 µM, first compound 1 µM
[30] = second compound 10 µM, first compound 3.16 µM
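Note: spheroids exposed to compounds for seven days before readout.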
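Throughout, for viability, T/C: 100% = DMSO vehicle control luminescence of the spheroids.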

SMILES | IC50 (second compound 0.1 µM) [nM] | IC50 (second compound 0.316 µM) [nM] | IC50 (second compound 1 µM) [nM] | IC50 (second compound 3.16 µM) [nM] | IC50 (second compound 10 µM) [nM] | viability, T/C [1] [%] | viability, T/C [2] [%] | viability, T/C [3] [%] | viability, T/C [4] [%] | viability, T/C [5] [%] | viability, T/C [6] [%] | viability, T/C [7] [%] | viability, T/C [8] [%] | viability, T/C [9] [%] | viability, T/C [14] [%] | viability, T/C [15] [%] | viability, T/C [20] [%] | viability, T/C [21] [%] | viability, T/C [26] [%] | viability, T/C [27] [%] | further results
CC1COCCN1c1cc(-c2ccnn2C)c2ccnc(-c3ccn[nH]3)c2n1 (stereo not given) + COc1cc2nc(C)nc(NC(C)c3cc(N)cc(C(F)(F)F)c3)c2cc1OC1CCOC1 | 37.4 | 425 | 350 | 114 | 120 | 70.2 | 46.4 | 32.6 | 42.3 | 36.8 | 14.2 | 99.8 | 112 | 81 | 104 | 77 | 64.3 | 56.3 | 92 | 51.3 | viability, T/C [10]: 58.5%; viability, T/C [11]: 31.8%; viability, T/C [12]: 25%; viability, T/C [13]: 103%; viability, T/C [16]: 50.5%; viability, T/C [17]: 38%; viability, T/C [18]: 24%; viability, T/C [19]: 80%; viability, T/C [22]: 29.3%; viability, T/C [23]: 17.9%; viability, T/C [24]: 25.7%; viability, T/C [25]: 99.8%; viability, T/C [28]: 33.5%; viability, T/C [29]: 21.8%; viability, T/C [30]: 20.9%
CC(C)n1nc(-c2ccc3oc(N)nc3c2)c2c(N)ncnc21 + CC1OCC2(CCN(c3cnc(Sc4ccnc(N)c4Cl)c(N)n3)CC2)C1N | 17.5 | 20.5 | 18.6 | 15.8 | 11.3 | 69.8 | 29.4 | 19.9 | – | – | – | 75.3 | 34.4 | 23.2 | 36.8 | 19.6 | 30.2 | 18.4 | 31.3 | 18.1 | viability, T/C (second compound 0.1 µM, first compound 0.000316 µM): 103%; viability, T/C (second compound 0.1 µM, first compound 0.001 µM): 98.2%; viability, T/C (second compound 0.1 µM, first compound 0.00316 µM): 89.3%; viability, T/C (second compound 0.316 µM, first compound 0.000316 µM): 101%; viability, T/C (second compound 0.316 µM, first compound 0.001 µM): 99.7%; viability, T/C (second compound 0.316 µM, first compound 0.00316 µM): 88.8%; viability, T/C (second compound 1 µM, first compound 0.000316 µM): 87.1%; viability, T/C (second compound 1 µM, first compound 0.001 µM): 78.5%; viability, T/C (second compound 1 µM, first compound 0.00316 µM): 84.5%; viability, T/C [13]: 64.8%; viability, T/C (second compound 3.16 µM, first compound 0.000316 µM): 74.7%; viability, T/C (second compound 3.16 µM, first compound 0.001 µM): 72.5%; viability, T/C (second compound 3.16 µM, first compound 0.00316 µM): 72.3%; viability, T/C [19]: 63.1%; viability, T/C (second compound 10 µM, first compound 0.000316 µM): 65%; viability, T/C (second compound 10 µM, first compound 0.001 µM): 71.7%; viability, T/C (second compound 10 µM, first compound 0.00316 µM): 66.6%; viability, T/C [25]: 50.9%
CCNC(=O)CC1N=C(c2ccc(Cl)cc2)c2cc(OC)ccc2-n2c(C)nnc21 (stereo not given) + CC1OCC2(CCN(c3cnc(Sc4ccnc(N)c4Cl)c(N)n3)CC2)C1N | > 10000 | > 10000 | > 10000 | 5860 | > 10000 | – | 111 | 103 | 99.9 | 95.6 | 94.9 | – | 94.2 | 108 | 84.8 | 83.3 | 73 | 69.3 | 70.5 | 67.4 | viability, T/C (second compound 0.1 µM, first compound 10 µM): 77.2%; viability, T/C [10]: 81.9%; viability, T/C [11]: 89.5%; viability, T/C [12]: 77.8%; viability, T/C (second compound 0.316 µM, first compound 10 µM): 68.5%; viability, T/C [16]: 93.1%; viability, T/C [17]: 73.9%; viability, T/C [18]: 86.1%; viability, T/C (second compound 1 µM, first compound 10 µM): 65.6%; viability, T/C [22]: 73%; viability, T/C [23]: 67%; viability, T/C [24]: 58.9%; viability, T/C (second compound 3.16 µM, first compound 10 µM): 42%; viability, T/C [28]: 57.8%; viability, T/C [29]: 56.5%; viability, T/C [30]: 56.5%; viability, T/C (second compound 10 µM, first compound 10 µM): 50.5%
